# Data as given in patent publication US10251395B2, “Substituted furano-/thienocycloalkylamino-2-pyrimidine derivatives and use thereof for controlling undesired plant growth” (Bayer CropScience Aktiengesellschaft, priority 2015, dated 2019).
# Columns and labels:
# [1] = system: Amaranthus retroflexus; experiment: Pre-emergence herbicidal effect; format: in vivo; conditions: scored visually after 3 weeks
# Method in brief: (§1)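 Seeds sown in sandy loam and covered with soil; WP or EC formulations sprayed onto the soil surface as aqueous suspension/emulsion at 600 to 800 L/ha water with 0.2% wetting agent. Greenhouse-grown; damage scored visually after 3 weeks against untreated controls (100% = plants dead, 0% = like control).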
# [2] = system: Echinochloa crus-galli; experiment: Pre-emergence herbicidal effect; format: in vivo; conditions: scored visually after 3 weeks
# Method in brief: as §1
# [3] = system: Polygonum convolvulus; experiment: Pre-emergence herbicidal effect; format: in vivo; conditions: scored visually after 3 weeks
# Method in brief: as §1
# [4] = system: Cyperus esculentus; experiment: Pre-emergence herbicidal effect; format: in vivo; conditions: scored visually after 3 weeks
# Method in brief: as §1
# [5] = system: Alopecurus myosuroides; experiment: Pre-emergence herbicidal effect; format: in vivo; conditions: scored visually after 3 weeks
# Method in brief: as §1
# [6] = system: Matricaria inodora; experiment: Pre-emergence herbicidal effect; format: in vivo; conditions: scored visually after 3 weeks
# Method in brief: as §1
# [7] = system: Abutilon theophrasti; experiment: Pre-emergence herbicidal effect; format: in vivo; conditions: Dosage 320 g/ha, scored visually after 3 weeks
# Method in brief: as §1
# [8] = system: Avena fatua; experiment: Pre-emergence herbicidal effect; format: in vivo; conditions: Dosage 320 g/ha, scored visually after 3 weeks
# Method in brief: as §1
# [9] = system: Viola tricolor; experiment: Pre-emergence herbicidal effect; format: in vivo; conditions: scored visually after 3 weeks
# Method in brief: as §1
# [10] = system: Veronica persica; experiment: Pre-emergence herbicidal effect; format: in vivo; conditions: scored visually after 3 weeks
# Method in brief: as §1
# [11] = system: Lolium multiflorum; experiment: Pre-emergence herbicidal effect; format: in vivo; conditions: scored visually after 3 weeks
# Method in brief: as §1
# [12] = system: Stellaria media; experiment: Pre-emergence herbicidal effect; format: in vivo; conditions: scored visually after 3 weeks
# Method in brief: as §1
# [13] = system: Setaria viridis; experiment: Pre-emergence herbicidal effect; format: in vivo; conditions: scored visually after 3 weeks
# Method in brief: as §1
# [14] = logP (HCOOH); format: physicochemical; conditions: HCOOH (formic acid)
# From the text: Table 2 (physicochemical characterization of selected synthesis examples)
# [15] = system: Amaranthus retroflexus; experiment: Post-emergence herbicidal effect; format: in vivo; conditions: assessed visually after about 3 weeks vs untreated controls
# Method in brief: (§2)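 Percent herbicidal action was judged by eye roughly 3 weeks post-application, 0% matching control plants and 100% meaning plant death. Seedlings, greenhouse-grown in sandy loam, received the spray at one leaf.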
# [16] = system: Echinochloa crus-galli; experiment: Post-emergence herbicidal effect; format: in vivo; conditions: 320 g/ha, assessed visually after about 3 weeks vs untreated controls
# Method in brief: as §2
# [17] = system: Polygonum convolvulus; experiment: Post-emergence herbicidal effect; format: in vivo; conditions: 320 g/ha, assessed visually after about 3 weeks vs untreated controls
# Method in brief: as §2
# [18] = system: Alopecurus myosuroides; experiment: Post-emergence herbicidal effect; format: in vivo; conditions: 320 g/ha, assessed visually after about 3 weeks vs untreated controls
# Method in brief: as §2
# [19] = system: Ipomoea purpurea; experiment: Post-emergence herbicidal effect; format: in vivo; conditions: 320 g/ha, assessed visually after about 3 weeks vs untreated controls
# Method in brief: as §2
# [20] = system: Matricaria inodora; experiment: Post-emergence herbicidal effect; format: in vivo; conditions: 320 g/ha, assessed visually after about 3 weeks vs untreated controls
# Method in brief: as §2
# [21] = system: Abutilon theophrasti; experiment: Post-emergence herbicidal effect; format: in vivo; conditions: assessed visually after about 3 weeks vs untreated controls
# Method in brief: as §2
# [22] = system: Avena fatua; experiment: Post-emergence herbicidal effect; format: in vivo; conditions: assessed visually after about 3 weeks vs untreated controls
# Method in brief: as §2
# [23] = system: Viola tricolor; experiment: Post-emergence herbicidal effect; format: in vivo; conditions: assessed visually after about 3 weeks vs untreated controls
# Method in brief: as §2
# [24] = system: Veronica persica; experiment: Post-emergence herbicidal effect; format: in vivo; conditions: assessed visually after about 3 weeks vs untreated controls
# Method in brief: as §2
# [25] = system: Lolium multiflorum; experiment: Post-emergence herbicidal effect; format: in vivo; conditions: assessed visually after about 3 weeks vs untreated controls
# Method in brief: as §2
# [26] = system: Stellaria media; experiment: Post-emergence herbicidal effect; format: in vivo; conditions: assessed visually after about 3 weeks vs untreated controls
# Method in brief: as §2
# [27] = system: Setaria viridis; experiment: Post-emergence herbicidal effect; format: in vivo; conditions: assessed visually after about 3 weeks vs untreated controls
# Method in brief: as §2
smiles,measurement,setting,value
"Cc1sc2c(c1C)C(Nc1ncc(C(F)(F)F)c(N)n1)CCC2 (stereo not shown) [compound 213, N2-(2,3-Dimethyl-4,5,6,7-tetrahydrobenzothiophen-4-yl)-5-(trifluoromethyl)pyrimidine-2,4-diamine]",AMARE pre-emergence efficacy (herbicidal activity),[1]; Dosage 80 g/ha,100%
same,AMARE pre-emergence efficacy (herbicidal activity),[1]; Dosage 320 g/ha,100%
same,ECHCG pre-emergence efficacy (herbicidal activity),[2]; Dosage 80 g/ha,90%
same,ECHCG pre-emergence efficacy (herbicidal activity),[2]; Dosage 320 g/ha,100%
same,POLCO pre-emergence efficacy (herbicidal activity),[3]; Dosage 80 g/ha,90%
same,POLCO pre-emergence efficacy (herbicidal activity),[3]; Dosage 320 g/ha,100%
same,CYPES pre-emergence efficacy (herbicidal activity),[4]; Dosage 80 g/ha,80%
same,CYPES pre-emergence efficacy (herbicidal activity),[4]; Dosage 320 g/ha,80%
same,ALOMY pre-emergence efficacy (herbicidal activity),[5]; Dosage 80 g/ha,100%
same,ALOMY pre-emergence efficacy (herbicidal activity),[5]; Dosage 320 g/ha,100%
same,MATIN pre-emergence efficacy (herbicidal activity),[6]; Dosage 80 g/ha,100%
same,MATIN pre-emergence efficacy (herbicidal activity),[6]; Dosage 320 g/ha,100%
same,ABUTH pre-emergence efficacy (herbicidal activity),[7],100%
same,AVEFA pre-emergence efficacy (herbicidal activity),[8],100%
same,VIOTR pre-emergence efficacy (herbicidal activity),[9]; Dosage 80 g/ha,100%
same,VIOTR pre-emergence efficacy (herbicidal activity),[9]; Dosage 320 g/ha,100%
same,VERPE pre-emergence efficacy (herbicidal activity),[10]; Dosage 80 g/ha,100%
same,VERPE pre-emergence efficacy (herbicidal activity),[10]; Dosage 320 g/ha,100%
same,LOLMU pre-emergence efficacy (herbicidal activity),[11]; Dosage 80 g/ha,80%
same,LOLMU pre-emergence efficacy (herbicidal activity),[11]; Dosage 320 g/ha,100%
same,STEME pre-emergence efficacy (herbicidal activity),[12]; Dosage 80 g/ha,100%
same,STEME pre-emergence efficacy (herbicidal activity),[12]; Dosage 320 g/ha,100%
same,SETVI pre-emergence efficacy (herbicidal activity),[13]; Dosage 80 g/ha,100%
same,SETVI pre-emergence efficacy (herbicidal activity),[13]; Dosage 320 g/ha,100%
same,chromatographic logP,[14],2.66
same,post-emergence efficacy AMARE,[15]; 80 g/ha,80%
same,post-emergence efficacy AMARE,[15]; 320 g/ha,90%
same,post-emergence efficacy ECHCG,[16],90%
same,post-emergence efficacy POLCO,[17],90%
same,post-emergence efficacy ALOMY,[18],90%
same,post-emergence efficacy PHBPU,[19],90%
same,post-emergence efficacy MATIN,[20],90%
same,post-emergence efficacy ABUTH,[21]; 80 g/ha,80%
same,post-emergence efficacy ABUTH,[21]; 320 g/ha,90%
same,post-emergence efficacy AVEFA,[22]; 80 g/ha,80%
same,post-emergence efficacy AVEFA,[22]; 320 g/ha,80%
same,post-emergence efficacy VIOTR,[23]; 80 g/ha,90%
same,post-emergence efficacy VIOTR,[23]; 320 g/ha,100%
same,post-emergence efficacy VERPE,[24]; 80 g/ha,80%
same,post-emergence efficacy VERPE,[24]; 320 g/ha,90%
same,post-emergence efficacy LOLMU,[25]; 80 g/ha,80%
same,post-emergence efficacy LOLMU,[25]; 320 g/ha,80%
same,post-emergence efficacy STEME,[26]; 80 g/ha,80%
same,post-emergence efficacy STEME,[26]; 320 g/ha,90%
same,post-emergence efficacy SETVI,[27]; 80 g/ha,50%
same,post-emergence efficacy SETVI,[27]; 320 g/ha,90%
